The assay has as its target T1, human fascin 1 (Homo sapiens, UniProt Q16658).
T1 construct: GST (N, cleaved yes); made in house; host or cells: Escherichia coli BL21/DE3 (pGEX4T-fascin 1 plasmid)
Nature of the assay: Fascin inhibition (actin bundling) assay, image-based. The settings on record: in the presence of 50 μm of the compound relative to bundle activity when the compound was not present; read-out: Inhibition (percentage reduction of bundle activity). In kind it is biochemical. Here is the method: Recombinant human fascin 1 was expressed as a GST fusion protein in BL21 Escherichia coli. One liter of 2YT medium with ampicillin was inoculated overnight with 3 mL of BL21/DE3 culture transformed with pGEX4T-fascin 1 plasmid and grown at 37° C. until attenuance at 600 nm (D600) reached about 0.8. The culture was then transferred to 18° C. and induced by the addition of 0.1 mM isopropyl β-d-thiogalactoside (IPTG) for 12 h. Bacteria were harvested by centrifugation at 5,000 r.p.m. for 10 min. The pellets were suspended in 30 mL of PBS supplemented with 0.2 mM PMSF, 1 mM DTT, 1% (v/v) Triton X-100 and 1 mM EDTA. After sonication, the suspension was centrifuged at 15,000 r.p.m. for 30 min to remove the cell debris. The supernatant was then incubated for 2 h with 4 mL of glutathione beads (Sigma) at 4° C. After extensive washing with PBS, the beads were resuspended in 10 mL of thrombin cleavage buffer (20 mM Tris-HCl pH 8.0, 150 mM NaCl, 2 mM CaCl2, 1 mM DTT). Fascin was released from the beads by incubation overnight with 40-100 U of thrombin at 4° C. After centrifugation, 0.2 mM PMSF was added to the supernatant to inactivate the remnant thrombin activity. The fascin protein was further concentrated with a Centricon® (Boca Raton, Fla.) filter to about 50 mg/mL.
Representative compounds described herein were tested for fascin inhibition activity. Purified fascin protein (15 μL of 0.5 μM) in buffer (100 mM KCl, 20 mM Tris/HCl, pH 7.5, 2 mM MgCl2) was added into each well of a clear 384-well flat-bottom plate (Corning) using Thermo Multidrop Combi (Fisher). Compound solutions (5 mM stock, 180 nL) were pin transferred from stock 384-well plates into the 384-well assay plates and incubated for 30 min. Then 15 μL of 0.5 μM polymerized actin (in 100 mM KCl, 20 mM Tris/HCl, pH 7.5, 2 mM MgCl2, 1 mM DTT, 1 mM ATP) (Cytoskeleton Inc.) was added, resulting in 30 μM final concentration for chemical compounds. […] Mixed solution (25 μL) was then transferred to one well in a black 384-well plate coated with poly-D-lysine, and stained actin bundles or F-actin would stick onto the poly-D-lysine plates. After the plates were thoroughly washed with 1×PBS for 3 times, the plate was imaged using an ImageXpress Micro High Content Screening System (Molecular devices). The images were processed and analyzed using MetaMorph software. The raw image data for each well was background-corrected by subtraction of the median intensities across all wells on the plate. The background-corrected data was used to compute the bundle length for each well. The negative control wells were employed for quality control: multiple DMSO-only control wells (16 wells/plate) were present on each assay plate.

For orientation: inhibition means the share of the control response that was lost under treatment. Regarding `Cc1cc(C(=O)Nc2nn(Cc3ccc(C(F)(F)F)cc3)c3ccccc23)oc1C` [Compound 1, 4,5-dimethyl-N-(1-(4-(trifluoromethyl)benzyl)-1H-indazol-3-yl)furan-2-carboxamide], the inhibition at 50 µM was below 10%.

`O=C(Nc1nn(Cc2ccc(C(F)(F)F)cc2)c2ccccc12)c1cc2ccccc2o1` [Compound 2, N-(1-(4-(trifluoromethyl)benzyl)-1H-indazol-3-yl)benzofuran-2-carboxamide]: the inhibition at 50 µM is below 10%.

For the molecule `Cc1ccc(-c2ccc(C(=O)Nc3nn(Cc4ccc(C(F)(F)F)cc4)c4ccccc34)o2)cc1` [Compound 3, 5-(p-tolyl)-N-(1-(4-(trifluoromethyl)benzyl)-1H-indazol-3-yl)furan-2-carboxamide], the inhibition at 50 µM amounted to 10%.

Take `O=C(Nc1nn(Cc2ccc(C(F)(F)F)cc2)c2ccccc12)c1ccccc1Cl` [Compound 5, 2-chloro-N-(1-(4-(trifluoromethyl)benzyl)-1H-indazol-3-yl)benzamide]: the inhibition at 50 µM is 50%.

Take `O=C(Nc1nn(Cc2ccc(C(F)(F)F)cc2)c2ccccc12)c1ccc(Cl)cc1` [Compound 6, 4-chloro-N-(1-(4-(trifluoromethyl)benzyl)-1H-indazol-3-yl)benzamide]: the inhibition at 50 µM amounted to 10%.

Regarding `O=C(Nc1nn(Cc2ccc(C(F)(F)F)cc2)c2ccccc12)c1cccc(Cl)c1` [Compound 7, 3-chloro-N-(1-(4-(trifluoromethyl)benzyl)-1H-indazol-3-yl)benzamide], the inhibition at 50 µM was 10%.

For `O=C(Nc1nn(Cc2ccc(C(F)(F)F)cc2)c2ccccc12)c1cccc(Cl)n1` [Compound 8, 6-chloro-N-(1-(4-(trifluoromethyl)benzyl)-1H-indazol-3-yl)picolinamide], the inhibition at 50 µM is below 10%.

Consider `O=C(Nc1nn(Cc2ccc(C(F)(F)F)cc2)c2ccccc12)c1cccs1` [Compound 9, N-(1-(4-(trifluoromethyl)benzyl)-1H-indazol-3-yl)thiophene-2-carboxamide], for which the inhibition at 50 µM came to 60%.

On to `Cc1csc(C(=O)Nc2nn(Cc3ccc(C(F)(F)F)cc3)c3ccccc23)n1` [Compound 11, 4-methyl-N-(1-(4-(trifluoromethyl)benzyl)-1H-indazol-3-yl)thiazole-2-carboxamide], for which the inhibition at 50 µM is below 10%.

In the case of `O=C(Nc1nn(Cc2ccc(C(F)(F)F)cc2)c2ccccc12)c1ccccc1F` [Compound 12, 2-fluoro-N-(1-(4-(trifluoromethyl)benzyl)-1H-indazol-3-yl)benzamide], the inhibition at 50 µM is below 10%.

In the case of `O=C(Nc1nn(Cc2ccc(C(F)(F)F)cc2)c2ccccc12)c1ccc(F)cc1` [Compound 13], the inhibition at 50 µM is below 10%.

Turning to `O=C(Nc1nn(Cc2ccc(C(F)(F)F)cc2)c2ccccc12)c1cccc(F)c1` [Compound 14, 3-fluoro-N-(1-(4-(trifluoromethyl)benzyl)-1H-indazol-3-yl)benzamide], the inhibition at 50 µM is below 10%.

With `Cc1ccccc1C(=O)Nc1nn(Cc2ccc(C(F)(F)F)cc2)c2ccccc12` [Compound 15, 2-methyl-N-(1-(4-(trifluoromethyl)benzyl)-1H-indazol-3-yl)benzamide], the inhibition at 50 µM is below 10%.

With `Cc1ccc(C(=O)Nc2nn(Cc3ccc(C(F)(F)F)cc3)c3ccccc23)cc1` [Compound 16], the inhibition at 50 µM was below 10%.

Turning to `Cc1cccc(C(=O)Nc2nn(Cc3ccc(C(F)(F)F)cc3)c3ccccc23)c1` [Compound 17, 3-methyl-N-(1-(4-(trifluoromethyl)benzyl)-1H-indazol-3-yl)benzamide], the inhibition at 50 µM was below 10%.

Turning to `O=C(Nc1nn(Cc2ccc(C(F)(F)F)cc2)c2ccccc12)c1cc(Cl)ccn1` [Compound 18], the inhibition at 50 µM is below 10%.

Regarding `O=C(Nc1nn(Cc2ccc(C(F)(F)F)cc2)c2ccccc12)c1ccc(F)c(F)c1` [Compound 19, 3,4-difluoro-N-(1-(4-(trifluoromethyl)benzyl)-1H-indazol-3-yl)benzamide], the inhibition at 50 µM was below 10%.

`O=C(Nc1nn(Cc2ccc(C(F)(F)F)cc2)c2ccccc12)c1cccc(F)c1F` [Compound 20, 2,3-difluoro-N-(1-(4-(trifluoromethyl)benzyl)-1H-indazol-3-yl)benzamide]: the inhibition at 50 µM was below 10%.

With `O=C(Nc1nn(Cc2ccc(C(F)(F)F)cc2)c2ccccc12)c1cc(F)ccc1F` [Compound 21, 2,5-difluoro-N-(1-(4-trifluoromethyl)benzyl)-1H-(indazol-3-yl)benzamide], the inhibition at 50 µM is below 10%.

As to `FC(F)(F)c1ccc(CNc2nn(Cc3ccc(C(F)(F)F)cc3)c3ccccc23)cc1` [Compound 22, N,1-bis(4-(trifluoromethyl)benzyl)-1H-indazol-3-amine], the inhibition at 50 µM is below 10%.

In the case of `Cc1ccsc1C(=O)Nc1nn(Cc2ccc(C(F)(F)F)cc2)c2ccccc12` [Compound 23, 3-methyl-N-(1-(4-(trifluoromethyl)benzyl)-1H-indazol-3-yl)thiophene-2-carboxamide], the inhibition at 50 µM is below 10%.

As for `O=C(Nc1nn(Cc2ccc(C(F)(F)F)cc2)c2ccccc12)c1csc(Cl)n1` [Compound 24, 2-chloro-N-(1-(4-(trifluoromethyl)benzyl)-1H-indazol-3-yl)thiazole-4-carboxamide], the inhibition at 50 µM was below 10%.

Regarding `O=C(Nc1nn(Cc2ccc(C(F)(F)F)cc2)c2ccccc12)c1cnc[nH]1` [Compound 26, N-(1-(4-(trifluoromethyl)benzyl)-1H-indazol-3-yl)-1H-imidazole-5-carboxamide], the inhibition at 50 µM is below 10%.

As for `Cc1cc[nH]c1C(=O)Nc1nn(Cc2ccc(C(F)(F)F)cc2)c2ccccc12` [Compound 27, 3-methyl-N-(1-(4-(trifluoromethyl)benzyl)-1H-indazol-3-yl)-1H-pyrrole-2-carboxamide], the inhibition at 50 µM was below 10%.

Turning to `Cc1cnoc1C(=O)Nc1nn(Cc2ccc(C(F)(F)F)cc2)c2ccccc12` [Compound 28, 4-methyl-N-(1-(4-(trifluoromethyl)benzyl)-1H-indazol-3-yl)isoxazole-5-carboxamide], the inhibition at 50 µM was found to be 80%.

As to `Cc1ccoc1C(=O)Nc1nn(Cc2ccc(C(F)(F)F)cc2)c2ccccc12` [Compound 29, 3-methyl-N-(1-(4-(trifluoromethyl)benzyl)-1H-indazol-3-yl)furan-2-carboxamide], the inhibition at 50 µM was below 10%.

For `O=C(Nc1nn(Cc2ccc(C(F)(F)F)cc2)c2ccccc12)c1cscn1` [Compound 30, N-(1-(4-(trifluoromethyl)benzyl)-1H-indazol-3-yl)thiazole-4-carboxamide], the inhibition at 50 µM is below 10%.

With `Cc1ocnc1C(=O)Nc1nn(Cc2ccc(C(F)(F)F)cc2)c2ccccc12` [Compound 31, 5-methyl-N-(1-(4-(trifluoromethyl)benzyl)-1H-indazol-3-yl)oxazole-4-carboxamide], the inhibition at 50 µM is 60%.

For the molecule `Cc1scnc1C(=O)Nc1nn(Cc2ccc(C(F)(F)F)cc2)c2ccccc12` [Compound 32, 5-methyl-N-(1-(4-(trifluoromethyl)benzyl)-1H-indazol-3-yl)thiazole-4-carboxamide], the inhibition at 50 µM is below 10%.

For the molecule `Cc1ncoc1C(=O)Nc1nn(Cc2ccc(C(F)(F)F)cc2)c2ccccc12` [Compound 34, 4-methyl-N-(1-(4-(trifluoromethyl)benzyl)-1H-indazol-3-yl)oxazole-5-carboxamide], the inhibition at 50 µM was determined as 80%.
